Results as given in patent EP4786486A1, “PEPTIDES FOR TREATING CARDIAC DISEASES” (Universidad Complutense De Madrid, priority 2023, dated 2025).

How the values were obtained:
Type in all cases: cell-based
human Nav1.5 channels = biological target: T1, human Nav1.5 channels (Homo sapiens, UniProt Q14524); test: INa density, whole-cell patch-clamp in CHO cells co-transfected with Nav1.5 and the cDNA encoding the peptide; conditions: vs. cells transfected only with Nav1.5 channels, various membrane potentials, P<0.05
T1 construct: expressed in transfected cells; host or cells: CHO (Chinese hamster ovary) cells
Procedure: To analyse the effect of the peptides designed in example 1 on INa and IK1, the cDNA that encodes SEQ ID NO: 3 or SEQ ID NO: 4, described in SEQ ID NO: 5 and 20, respectively, was cloned into a pcDNA3.1^(+)® vector (Invitrogen) for transfection of Chinese hamster ovary (CHO) cells that were in turn transfected with the cDNA that encodes the human Nav1.5 channels (SEQ ID NO: 21). The CHO cells were further co-transfected with the EBO-pcD leu 2 vector (0.5 µg), which encodes the expression of the CD8 surface antigen. The subsequent addition of anti-CD8 antibody, bonded to Dynabeads M450® microspheres, allowed the cells that had been transfected to be identified. […] The currents were recorded at 20-22°C using an Axopatch 200B amplifier, filtered at half the sampling frequency and stored in a computer for further analysis. […] The capacitive current artefacts generated after the application of pulses from 0 mV to +10 mV were recorded at 50 kHz (filtered at 10 kHz) to calculate the capacitance of the cell, the access resistance and the input impedance. […] INa was recorded by applying 50 ms pulses from a holding potential of -120 mV to potentials between -80 and +50 mV in 5 mV increments. […]

[1] = tested on: human iPSC-derived cardiomyocytes; test: INa density in hiPSC-CM infected with AAV9 encoding the peptide, patch-clamp; conditions: hiPSC-CM infected 48 hours with AAV9 encoding DECA-11; vs. Ad-td-Tomato infected cardiomyocytes; P<0.05
[2] = tested on: minimal promoter of the human KCNJ2 gene; test: Luciferase promoter assay in hEK-293 cells, KCNJ2; conditions: hEK-293 cells co-transfected with cDNA SEQ ID NO: 5; 48 hours after transfection
Procedure: 48 hours after transfection, luciferase assays were performed using the LightSwitch Luciferase Assay reagent, also from Active Motif, and a Berthold luminometer. All assays were performed in triplicate and each point represents the mean of each technical triplicate.

T1 sequence (Q14524 1-2015 isoform Q14524-2): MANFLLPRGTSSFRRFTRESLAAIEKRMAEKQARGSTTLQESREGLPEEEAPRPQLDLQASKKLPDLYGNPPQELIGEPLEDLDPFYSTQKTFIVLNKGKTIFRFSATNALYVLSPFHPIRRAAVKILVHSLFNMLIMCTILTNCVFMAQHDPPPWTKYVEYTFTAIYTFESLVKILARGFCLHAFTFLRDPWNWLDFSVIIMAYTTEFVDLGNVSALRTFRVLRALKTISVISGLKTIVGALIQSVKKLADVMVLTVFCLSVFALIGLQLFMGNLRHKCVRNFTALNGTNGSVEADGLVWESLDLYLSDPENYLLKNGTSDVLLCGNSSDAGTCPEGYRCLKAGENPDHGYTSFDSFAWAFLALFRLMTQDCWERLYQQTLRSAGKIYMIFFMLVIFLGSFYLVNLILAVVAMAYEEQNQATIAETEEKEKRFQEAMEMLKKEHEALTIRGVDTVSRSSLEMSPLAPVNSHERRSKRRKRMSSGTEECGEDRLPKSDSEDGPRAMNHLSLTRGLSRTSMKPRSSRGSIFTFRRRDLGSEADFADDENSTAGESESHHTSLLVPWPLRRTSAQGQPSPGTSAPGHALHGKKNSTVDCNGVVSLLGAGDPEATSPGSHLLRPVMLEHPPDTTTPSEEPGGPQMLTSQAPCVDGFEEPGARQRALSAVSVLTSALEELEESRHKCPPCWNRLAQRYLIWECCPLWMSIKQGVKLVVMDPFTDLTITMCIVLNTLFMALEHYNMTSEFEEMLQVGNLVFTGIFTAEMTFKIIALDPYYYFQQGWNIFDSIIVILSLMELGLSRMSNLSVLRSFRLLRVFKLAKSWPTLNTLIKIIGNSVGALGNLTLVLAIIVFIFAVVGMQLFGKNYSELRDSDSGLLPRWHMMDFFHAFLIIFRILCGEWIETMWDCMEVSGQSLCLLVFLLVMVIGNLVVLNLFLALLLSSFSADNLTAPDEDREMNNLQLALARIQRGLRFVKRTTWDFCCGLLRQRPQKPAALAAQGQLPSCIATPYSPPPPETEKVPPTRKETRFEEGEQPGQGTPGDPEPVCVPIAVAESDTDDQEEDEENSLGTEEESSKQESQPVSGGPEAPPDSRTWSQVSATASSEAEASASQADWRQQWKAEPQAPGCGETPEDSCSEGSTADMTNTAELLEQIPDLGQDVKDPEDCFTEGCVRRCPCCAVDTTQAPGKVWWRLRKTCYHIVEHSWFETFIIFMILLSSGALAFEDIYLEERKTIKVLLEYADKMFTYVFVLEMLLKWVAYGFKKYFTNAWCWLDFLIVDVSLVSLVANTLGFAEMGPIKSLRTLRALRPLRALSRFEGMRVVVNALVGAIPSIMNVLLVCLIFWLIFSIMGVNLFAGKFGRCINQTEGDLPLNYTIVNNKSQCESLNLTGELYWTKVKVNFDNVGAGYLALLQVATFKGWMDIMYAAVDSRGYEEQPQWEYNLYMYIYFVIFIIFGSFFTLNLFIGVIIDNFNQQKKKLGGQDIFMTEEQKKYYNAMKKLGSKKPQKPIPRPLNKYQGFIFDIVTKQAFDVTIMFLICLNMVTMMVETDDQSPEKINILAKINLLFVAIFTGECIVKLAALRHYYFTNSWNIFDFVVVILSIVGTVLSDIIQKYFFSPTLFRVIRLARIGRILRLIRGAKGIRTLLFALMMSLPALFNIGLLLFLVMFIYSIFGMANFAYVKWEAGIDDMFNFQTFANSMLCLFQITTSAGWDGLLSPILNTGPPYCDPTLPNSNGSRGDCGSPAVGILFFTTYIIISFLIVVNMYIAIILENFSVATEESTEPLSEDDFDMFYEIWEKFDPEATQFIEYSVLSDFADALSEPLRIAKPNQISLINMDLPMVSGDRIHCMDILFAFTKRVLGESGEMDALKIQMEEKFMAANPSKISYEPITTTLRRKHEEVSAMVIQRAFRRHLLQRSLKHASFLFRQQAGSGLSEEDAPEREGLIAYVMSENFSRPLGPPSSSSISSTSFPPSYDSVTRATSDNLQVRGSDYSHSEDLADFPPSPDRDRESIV

Sequence: RFTRESLAAIE (listed as Homo sapiens) [SEQ ID NO: 3, 11-amino acid peptide, amino acids 15-25 of human Nav1.5]
- density of INa (human Nav1.5 channels): significantly increase
- density of INa [1]: significantly increase
- effect on the minimal promoter of the human KCNJ2 gene (luciferase) [2]: protranscriptional effect
